Source: patent US9957236B2, “Selective inhibitors interfering with fibroblast growth factor receptor and FRS2 interaction for the prevention and treatment of cancer and other diseases” (LIMITED LIABILITY COMPANY “RUSSIAN PHARMACEUTICAL …, priority 2014, dated 2018)

How the values were obtained:
anti-FGF-2 antibody = test: Enzyme-linked immune assay, FGF-2 binding to immobilized anti-FGF-2 antibody; details: concentration of 1 to 1,000 nM
Description: The next task was to assess influence of inhibitor RPT835 on binding of FGF-2 and FGFR2-Fc. […] In order to exclude unspecific effect of RPT835 on binding, one more enzyme-linked immune assay was carried out, in which the cavities were covered with immobilized anti-FGF-2 antibody. FGF-2±RPT835 in different concentrations is added to the cavities.

[1] = system: p44/42(MAPK), Akt, mTOR, p70S6; test: Phosphorylation of intracellular kinases in KATO III cells; assay type: cell-based; details: FGF-2 and heparin
Description: In order to access the effect of inhibitor RPT835, characterized in his invention by formula II, on phosphorylation of the listed kinases, stomach cancer cells KATO III, which express FGFR2, was used. FGF-2 in concentration 1 mg/ml and heparin 10 mg/ml was added to the cells for stimulation of FGFR. RPT835 was added in various concentrations. Part of the cells left without addition of the inhibitor, and a part of the cells—without addition of both the inhibitor, and stimulating agents (control groups).
In order to assess the phosphorylation level, 2 standard methods were used: • Western-blotting using manual work. • Automatic capillary electrophoresis and immune-detection using automatic system Wes™ (ProteinSimple; SantaClara, Calif.).

[2] = system: Mel Kor metastatic melanoma cells; test: Crystal Violet proliferation assay, Mel Kor; assay type: cell-based; details: hardly expressed FGFR2, bFGF 100 ng/ml, 7 days
Description: This research used additional cell lines: SKOV3 (ovarian cancer, ATCC # HTB-77), HS578T (breast cancer, ATCC # HTB-126), T47D (breast cancer, ATCC #HTB-1336), modified line of non-small cells lung cancer A549, line of metastatic melanoma of skin Mel Kor (RF Patent No. 2287578), and additional study of antiangiogenic activity—cell line SVEC-4-10 (endothelial cells, ATCC #CRL-2181).
The cells were cultivated in environment RPMI-1640 (PANECO) (SKOV3, HS578T, T47D, Mel-Kor) or DMEM (PANECO) (SVEC-4-10) containing 10% of embryonal serum cattle (FCS, HyClone), 2 mM glutamine (PANECO), antibiotics (100 IU/mL penicillin and […] streptomycin (all PANECO)) at 37° C. and 5% CO2. Cells at 70-80% monolayer were used for the experiments.
The cells were planted in low density (30 t of cells/ml) in triplets on a 96-cavity plate in an environment containing 0.1% of FCS serum. […] Growth of cells was determined by the modified “Crystal Violet mitogenic method” for 7 days after the experiment start. […] The dye was dissolved in ethanol and measured on a spectrophotometer at 540-560 nm. The curve of cell proliferative activity inhibition was built by the dependence of the percent of the cell quantity (Y axis) on concentration of inhibitor RPT835 in the cavity of the plate (X axis). […]

[3] = in vivo
Description: Besides, acute toxicity of inhibitor RPT835 was studied in the following volume in a separate research: • Acute toxicity of the medicine was researched. […] The state of the animals after acute administration testifies of good tolerability of the medicine in doses exceeding the maximal therapeutic ones (about 4.3 mcg/kg) tens—hundreds of times. […]

FRS2 = target: T1, FRS2 (Homo sapiens, UniProt Q8WU20); test: FRS2 phosphorylation in FGF-2/heparin-stimulated KATO III cells (Western blotting, Wes); assay type: cell-based; set-up: endogenous in cells
T1 sequence (Q8WU20 1-508): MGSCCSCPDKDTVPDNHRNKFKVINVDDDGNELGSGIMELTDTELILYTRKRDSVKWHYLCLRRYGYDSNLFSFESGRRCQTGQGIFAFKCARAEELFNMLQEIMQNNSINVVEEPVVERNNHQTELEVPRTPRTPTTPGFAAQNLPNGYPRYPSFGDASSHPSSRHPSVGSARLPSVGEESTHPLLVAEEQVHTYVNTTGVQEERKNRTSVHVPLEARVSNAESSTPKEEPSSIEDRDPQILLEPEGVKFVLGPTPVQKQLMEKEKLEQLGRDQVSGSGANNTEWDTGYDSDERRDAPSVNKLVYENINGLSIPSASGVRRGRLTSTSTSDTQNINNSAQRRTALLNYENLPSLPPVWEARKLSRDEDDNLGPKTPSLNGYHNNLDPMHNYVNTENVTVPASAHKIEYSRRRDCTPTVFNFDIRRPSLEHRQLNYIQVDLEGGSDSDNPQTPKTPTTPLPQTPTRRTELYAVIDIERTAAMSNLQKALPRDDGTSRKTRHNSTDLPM
Description: For assessment of the effect of RPT835 inhibitor characterized in this invention with formula II, stomach cancer cells KATO III, which express FGFR2, were used for FRS2 phosphorylation. […] RPT835 was added in various concentrations. A part of the cells was left without adding the inhibitor, and a part of the cells—without adding either inhibitor, or stimulating agents (control group).
Two standard methods for assessment of the phosphorylation level of FGFR and FRS2: • Western blotting using manual work; • Automatic capillary electrophoresis and immunodetection using automatic system Wes™ (ProteinSimple; SantaClara, Calif.).
The purpose of this research was assessment of specific action of inhibitor RPT835 specified in this invention with formula II, on interaction of […] and FRS2 and assessment of influence on interaction of other types of FGFR and FRS2. For the experiment, 2 cell lines were selected: • stomach cancer KATO III, expressing FGFR2, and • breast cancer MDA MB 134, expressing FGFR1.
The research procedure was the same as in the previous examples: the cells were cultivated in presence of RPT835 followed by stimulation with FGF-2 and heparin. The other part of the cells was cultivated in presence of RPT835. Phosphorylation of FGFR1 (in breast cancer cells) and FGFR2 (in stomach cancer cells), and also FRS2a (in the both cell lines) and some intracellular kinases (in breast cancer cells) was assessed using manual and automated Western blotting.

In the case of `Cc1cc([N+](=O)[O-])c(NS(=O)(=O)c2cccc(C(=O)O)c2)cc1-c1cccnc1` [RPT835, 3-(N-(4-methyl-2-nitro-5-(pyridin-3-yl)phenyl)sulfamoyl)benzoic acid], the “binding of FGF-2 with anti-FGF-2 antibody” value (anti-FGF-2 antibody) is reported as “did not influence on binding of FGF-2 with anti-FGF-2 antibody”, the “activity (phosphorylation) of p44/42(MAPK), Akt, mTOR, p70S6 compared to cells stimulated only with FGF-2” value [1] is reported as “did not change” and the “inhibition of proliferative activity” value [2] is reported as “did not block”. For the same compound, the “irritating effect on the mucous membrane of the gastrointestinal tract” value [3] was “does not have an irritating effect”, the IC50 (FRS2; FGF-2 and heparin stimulation, read-out: concentration of the semi-maximal inhibiting (IC50) of FRS2 phosphorylation) was under 10 nM and the “Suppression of FRS2α phosphorylation” value (FRS2; concentration of 10 nM) was over 50%. For the same compound, the “phosphorylation of FRS2α (FGFR2 system)” value (FRS2; dose of 100 nM) was “completely decreased phosphorylation of FRS2α (FGFR2 system) to the initial level”.
